Experimental data: paper PMC12195967, “Cobalt(II) Complexes of 4′–Nitro–Fenamic Acid: Characterization and Biological Evaluation” (Molecules, 2025)
“And” between values parts separate entries of the source, which are not always exact repeats. Equal entries are not always repeated.

Tests used:
[1] = ABTS radical cation scavenging; conditions: compounds 0.1 mM; absorbance 734 nm after 1 min
Experimental: The ABTS-scavenging was measured through the discoloration of a dark green solution containing the cationic radical ABTS^•+, which was induced from the oxidation derived from hydrogen-donating antioxidants, either complexes or standards, and is often considered a marker of total oxidation capacity. […] Such an increase in activity upon coordination is expected for metal–NSAID complexes.
(§1) S1 Antioxidant activity assay
(§2) The antioxidant activity of the compound was evaluated via the ability to scavenge in vitro free radicals such as DPPH and ABTS and to reduce H2O2. All the experiments were carried out at least in triplicate and the standard deviation of absorbance was less than 10% […]
S1.2 Assay of radical cation ABTS−scavenging activity
The ABTS assay was performed to determine the activity of the compounds to scavenge the radical cation ABTS. Initially, a water solution of ABTS was prepared (2 mM).
ABTS radical cation (ABTS+·) was produced by the reaction of ABTS stock solution with potassium persulfate (0.17 mM) and the mixture was stored in the dark at room temperature for 12−16 h before its use. The ABTS was oxidized incompletely because the stoichiometric reaction ratio of ABTS and potassium persulfate is 1:0.5. The absorbance became maximal and stable only after more than 6 h of reaction although the oxidation of the ABTS started immediately. The radical was stable in this form for more than 2 days when allowed to stand in the dark at room temperature. Afterwards, the ABTS+· solution was diluted in ethanol to an absorbance of 0.70 at 734 nm and 10 μL of diluted compounds or standards (0.1 mM) in DMSO were added. The absorbance was recorded out exactly 1 min after initial mixing.
The ABTS–radical scavenging activity of the compounds was expressed as the percentage inhibition of the absorbance of the initial ABTS solution (ABTS%). […]

[2] = system: CT DNA; assay: DNA-melting temperature of CT DNA in presence of the compounds; type: binding, calf; conditions: compound–DNA ratio 1:50; for Tm of CT DNA in the presence of the compound: CT DNA alone Tm 80.7 °C; for ΔTm of CT DNA: versus CT DNA alone 80.7 °C
Source text: In order to further clarify the interaction mode of the compounds with CT DNA, the effect of the temperature of this interaction was also investigated. Within this context, the thermal denaturation of DNA in the presence of the compounds was studied with UV-vis spectroscopy in order to calculate (via a sigmoidal fitting of the experimental data) the DNA-melting temperature (Tm), i.e., the temperature at which half of double-stranded DNA is denatured (“melted”) to single-stranded DNA.
S3 Binding studies with CT DNA
In order to study the interaction of the compounds with DNA, the compound was initially dissolved in DMSO (1 mM). Mixing of such solutions with the aqueous buffer solutions of DNA used in the studies never exceeded 5% DMSO (v/v) in the final solution, which was needed due to low aqueous solubility of most compounds. In all experiments, the effect of DMSO on the data has been taken into consideration and the appropriate corrections have been performed. The interaction of the compound with CT DNA was monitored by UV−vis spectroscopy, and viscosity measurements, and via competitive studies with EB by fluorescence emission spectroscopy. […]
S3.2 Determination of the DNA–melting temperature (Tm)
The UV–vis spectra of a CT DNA solution (1.25×10–4 M) in the presence of the compounds (2.5×10–6 M) were recorded upon increasing the temperature. The obtained data are presented as normalized absorbance at 260 nm (Normalized A(260 nm)) versus temperature (T (ºC)). A sigmoidal fitting of the data was applied for each compound and the melting temperature Tm (temperature with normalized absorbance of 0.5) was determined. […]

[3] = DPPH radical scavenging; conditions: compounds 0.1 mM, DPPH 0.1 mM in ethanol
Experimental: Antioxidant compounds able to neutralize DPPH radicals are increasingly recognized due to their capability of combating cancer, slowing down the aging process and regulating inflammation. As a result, they could potentially offer protection against rheumatoid arthritis and inflammation. […] In this experiment, NDGA and BHT were used as reference compounds and measurements took place at 30 min and 60 min. […] Such low scavenging activity of DPPH radicals is rather common for metal–NSAID complexes.
as §1, §2
S1.1 Determination of the reducing activity of the radical DPPH
To an ethanolic solution of DPPH (0.1 mM) an equal volume solution of the compounds (0.1 mM) in ethanol was added. Absolute ethanol was also used as control solution. The absorbance at 517 nm was recorded at room temperature after 30 and 60 min in order to examine the possible existence of a potential time−dependence of the DPPH radical scavenging activity.[1] The DPPH−scavenging activity of the compounds was expressed as the percentage reduction of the absorbance values of the initial DPPH solution (DPPH%). NDGA and BHT were used as reference compounds. […]

[4] = Reduction of hydrogen peroxide; conditions: compounds 0.1 mM; phosphate buffer pH 7.4; 10 min
Experimental: Harmful hydroxyl radicals are released when hydrogen peroxide interacts with transition metal ions, leading to oxidative stress. Consequently, both oxidative stress and the production of reactive oxygen species could be reduced by ^•OH scavengers and H2O2 reducing agents.
as §1
The antioxidant activity of the compound was evaluated via the ability to scavenge in vitro free radicals such as DPPH and ABTS and to reduce H2O2. […]
S1.3 Reduction of hydrogen peroxide
The ability of the compounds to reduce hydrogen peroxide (H2O2) was estimated according to the method described in the literature. The reaction mixture contained 20 μL of each of the tested compounds (0.1 mM) and 5 μL H2O2 solution (40 mM) in phosphate […]
buffer (50 mM, pH 7.4). The absorbance was measured at 230 nm after 10 min. The antioxidant activity (reduction of H2O2) of the compounds was expressed as the percentage decrease of the initial H2O2 solution (H2O2%). […]

[5] = Solubility; type: physicochemical

Row | SMILES | %ABTS radical scavenging activity (ABTS%) [1] | Tm of CT DNA in the presence of the compound [2] | %DPPH-scavenging ability (DPPH%), 30 min [3] | %DPPH-scavenging ability (DPPH%), 60 min [3] | H2O2-reducing ability (H2O2%) [4] | solubility in H2O and MeCN [5] | ΔTm of CT DNA [2]
1 | O=C(O)c1ccccc1Nc1ccc([N+](=O)[O-])cc1 [4′–NO2–fenH, 4′–nitrofenamic acid] | Not active | 83.7 °C | Not active | Not active | 66.46% and 66.46 ± 0.33% | – | –
2 | CO.CO.CO.CO.O=C([O-])c1ccccc1Nc1ccc([N+](=O)[O-])cc1.O=C([O-])c1ccccc1Nc1ccc([N+](=O)[O-])cc1.[Co+2] [Complex 1, [Co(4′–NO2–fen)2(MeOH)4]] | 24.68 ± 0.35% | 83.7 °C | Not active | Not active | 72.68 ± 0.63% | partially soluble | –
3 | O=C([O-])c1ccccc1Nc1ccc([N+](=O)[O-])cc1.O=C([O-])c1ccccc1Nc1ccc([N+](=O)[O-])cc1.[Co+2].c1ccc(Nc2ccccn2)nc1 [Complex 2, [Co(4′–NO2–fen)2(bipyam)]] | 43.65 ± 0.37% | 74.5 °C | Not active | Not active | 77.59 ± 0.28% | partially soluble | negative
4 | O=C([O-])c1ccccc1Nc1ccc([N+](=O)[O-])cc1.O=C([O-])c1ccccc1Nc1ccc([N+](=O)[O-])cc1.[Co+2].c1cnc2c(c1)ccc1cccnc12 [Complex 3, [Co(4′–NO2–fen)2(phen)]] | 48.12 ± 0.88% | 84.7 °C | Not active | Not active | 69.48 ± 0.37% | partially soluble | –
5 | C[O-].C[O-].Cc1ccc2ccc3ccc(C)nc3c2n1.Cc1ccc2ccc3ccc(C)nc3c2n1.O=C([O-])c1ccccc1Nc1ccc([N+](=O)[O-])cc1.O=C([O-])c1ccccc1Nc1ccc([N+](=O)[O-])cc1.[Co+2].[Co+2] [Complex 4, [Co2(4′–NO2–fen)2(μ–CH3O)2(neoc)2]] | 21.39 ± 0.22% | 73.9 °C | Not active | Not active | 72.44 ± 0.42% | partially soluble | negative
